Experimental data published in PubChem BioAssay AID328 (DTP/NCI, 2004).
Several values for one entry are separate records, joined by “and”; a condition that tells them apart may be missing. Equal entries are not always repeated. Toxic doses and inconclusive results are not listed.

System: BDF1 mice, P388 leukemia ip, median survival T/C
Assay: NCI In Vivo Anticancer Drug Screen. Data for tumor model P388 Leukemia (intraperitoneal) in B6D2F1 (BDF1) mice
Details: endpoint: median survival time, higher = longer survival
Protocol: The antitumor activity of compounds was measured in mice bearing transplantable tumors. Survival or tumor size were measured and the results are expressed as the measurement made in the treated group (T) divided by the measurement made in the vehicle treated control group (C). The tumor model used in this assay is P388 Leukemia (intraperitoneal) in B6D2F1 (BDF1) mice

[1] = dose: 100.0 mg/kg/injection, schedule: Q04DX003 (ip), vehicle: saline with Tween-80
[2] = dose: 200.0 mg/kg/injection, schedule: Q04DX003 (ip), vehicle: saline with Tween-80
[3] = dose: 400.0 mg/kg/injection, schedule: Q04DX003 (ip), vehicle: saline with Tween-80
[4] = dose: 6.25 mg/kg/injection, schedule: Q01DX009 (ip), vehicle: saline
[5] = dose: 100.0 mg/kg/injection, schedule: Q04DX003 (ip), vehicle: Klucel (hydroxypropylcellulose) (HPC)
[6] = dose: 200.0 mg/kg/injection, schedule: Q04DX003 (ip), vehicle: Klucel (hydroxypropylcellulose) (HPC)
[7] = dose: 400.0 mg/kg/injection, schedule: Q04DX003 (ip), vehicle: Klucel (hydroxypropylcellulose) (HPC)

## CC(=O)Nc1cc2c(cc1[N+](=O)[O-])-c1ccc([N+](=O)[O-])cc1C2
dose: 6.25 mg/kg/injection, schedule: Q01DX009 (ip), vehicle: Klucel (hydroxypropylcellulose) (HPC)
  T/C: 89 % of control
dose: 12.5 mg/kg/injection, schedule: Q01DX009 (ip), vehicle: Klucel (hydroxypropylcellulose) (HPC)
  T/C: 97 % of control
dose: 25.0 mg/kg/injection, schedule: Q01DX009 (ip), vehicle: Klucel (hydroxypropylcellulose) (HPC)
  T/C: 89 % of control and 91 % of control

## Cc1ccc2nc3c(nc2c1)-c1cccc2cccc-3c12
[1]
  T/C: 87 % of control
[2]
  T/C: 91 % of control
[3]
  T/C: 91 % of control

## CC(Cc1ccc2c(c1)OCO2)C(C)Cc1ccc2c(c1)OCO2 (stereo not drawn)
dose: 100.0 mg/kg/injection, schedule: Q01DX001 (ip), vehicle: Klucel (hydroxypropylcellulose) (HPC)
  T/C: 100 % of control
dose: 200.0 mg/kg/injection, schedule: Q01DX001 (ip), vehicle: Klucel (hydroxypropylcellulose) (HPC)
  T/C: 100 % of control
dose: 400.0 mg/kg/injection, schedule: Q01DX001 (ip), vehicle: Klucel (hydroxypropylcellulose) (HPC)
  T/C: 100 % of control

## O=c1[nH]cc(I)cc1I
[2]
  T/C: 100 % of control
[3]
  T/C: 100 % of control

## COc1cc2cc(c1Cl)N(C)C(=O)C[C@H](OC(=O)[C@H](C)N(C)C(C)=O)[C@]1(C)O[C@H]1[C@H](C)[C@@H]1C[C@@](O)(NC(=O)O1)[C@H](OC)C=C/C=C(\C)C2
dose: 1.6 micrograms/kg/injection, schedule: Q01DX009 (ip), vehicle: saline
  T/C: 155 % of control
dose: 2.0 micrograms/kg/injection, schedule: Q08DX002 (ip), vehicle: saline
  T/C: 104 % of control
dose: 3.1 micrograms/kg/injection, schedule: Q01DX009 (ip), vehicle: saline
  T/C: 165 % of control
dose: 4.0 micrograms/kg/injection, schedule: Q08DX002 (ip), vehicle: saline
  T/C: 111 % of control and 117 % of control
dose: 6.2 micrograms/kg/injection, schedule: Q01DX009 (ip), vehicle: saline
  T/C: 195 % of control
dose: 8.0 micrograms/kg/injection, schedule: Q08DX002 (ip), vehicle: saline
  T/C: 122 % of control and 123 % of control
dose: 10.0 micrograms/kg/injection, schedule: Q03HX024 (ip), vehicle: saline
  T/C: 194 % of control
dose: 12.5 micrograms/kg/injection, schedule: Q01DX009 (ip), vehicle: saline
  T/C: 190 % of control
dose: 15.0 micrograms/kg/injection, schedule: Q03HX024 (ip), vehicle: saline
  T/C: 238 % of control
dose: 20.0 micrograms/kg/injection, schedule: Q03HX024 (ip), vehicle: saline
  T/C: 176 % of control
dose: 25.0 micrograms/kg/injection, schedule: Q01DX009 (ip), vehicle: saline
  T/C: 220 % of control
dose: 25.0 micrograms/kg/injection, schedule: Q03HX024 (ip), vehicle: saline
  T/C: 188 % of control
dose: 30.0 micrograms/kg/injection, schedule: Q03HX024 (ip), vehicle: saline
  T/C: 527 % of control
dose: 32.0 micrograms/kg/injection, schedule: Q08DX002 (ip), vehicle: clinical formulation
  T/C: 191 % of control
dose: 35.0 micrograms/kg/injection, schedule: Q03HX024 (ip), vehicle: saline
  T/C: 194 % of control
dose: 40.0 micrograms/kg/injection, schedule: Q03HX024 (ip), vehicle: saline
  T/C: 188 % of control
dose: 50.0 micrograms/kg/injection, schedule: Q04DX003 (ip), vehicle: clinical formulation
  T/C: 203 % of control
dose: 54.0 micrograms/kg/injection, schedule: Q04DX003 (ip), vehicle: clinical formulation
  T/C: 192 % of control
dose: 64.0 micrograms/kg/injection, schedule: Q08DX002 (ip), vehicle: clinical formulation
  T/C: 155 % of control and 169 % of control
dose: 64.0 micrograms/kg/injection, schedule: Q08DX002 (ip), vehicle: saline
  T/C: 163 % of control
dose: 90.0 micrograms/kg/injection, schedule: Q04DX003 (ip), vehicle: clinical formulation
  T/C: 200 % of control
dose: 100.0 micrograms/kg/injection, schedule: Q04DX003 (ip), vehicle: clinical formulation
  T/C: 183 % of control
dose: 108.0 micrograms/kg/injection, schedule: Q04DX003 (ip), vehicle: saline
  T/C: 172 % of control
dose: 128.0 micrograms/kg/injection, schedule: Q08DX002 (ip), vehicle: clinical formulation
  T/C: 167 % of control and 182 % of control
dose: 128.0 micrograms/kg/injection, schedule: Q08DX002 (ip), vehicle: saline
  T/C: 183 % of control and 193 % of control
dose: 150.0 micrograms/kg/injection, schedule: Q04DX003 (ip), vehicle: clinical formulation
  T/C: 224 % of control
dose: 180.0 micrograms/kg/injection, schedule: Q04DX003 (ip), vehicle: saline
  T/C: 159 % of control
dose: 200.0 micrograms/kg/injection, schedule: Q04DX003 (ip), vehicle: clinical formulation
  T/C: 194 % of control
dose: 250.0 micrograms/kg/injection, schedule: Q04DX003 (ip), vehicle: clinical formulation
  T/C: 224 % of control
dose: 256.0 micrograms/kg/injection, schedule: Q08DX002 (ip), vehicle: clinical formulation
  T/C: 197 % of control and 204 % of control
dose: 256.0 micrograms/kg/injection, schedule: Q08DX002 (ip), vehicle: saline
  T/C: 203 % of control and 219 % of control
dose: 300.0 micrograms/kg/injection, schedule: Q04DX003 (ip), vehicle: saline
  T/C: 180 % of control
dose: 512.0 micrograms/kg/injection, schedule: Q08DX002 (ip), vehicle: clinical formulation
  T/C: 227 % of control
dose: 512.0 micrograms/kg/injection, schedule: Q08DX002 (ip), vehicle: saline
  T/C: 272 % of control and 219 % of control
dose: 1024.0 micrograms/kg/injection, schedule: Q08DX002 (ip), vehicle: clinical formulation
  T/C: 242 % of control
dose: 1024.0 micrograms/kg/injection, schedule: Q08DX002 (ip), vehicle: saline
  T/C: 88 % of control and 117 % of control

## O=C1C=CC(=O)N1CN1CCOCC1
dose: 3.12 mg/kg/injection, schedule: Q01DX009 (ip), vehicle: saline
  T/C: 120 % of control
[4]
  T/C: 104 % of control
dose: 12.5 mg/kg/injection, schedule: Q01DX009 (ip), vehicle: saline
  T/C: 116 % of control
dose: 18.75 mg/kg/injection, schedule: Q01DX009 (ip), vehicle: saline
  T/C: 111 % of control

## COc1cc2c(cc1O)CCCCC2=O
dose: 25.0 mg/kg/injection, schedule: Q01DX009 (ip), vehicle: saline with Tween-80
  T/C: 109 % of control
dose: 50.0 mg/kg/injection, schedule: Q01DX009 (ip), vehicle: saline with Tween-80
  T/C: 104 % of control
dose: 100.0 mg/kg/injection, schedule: Q01DX009 (ip), vehicle: saline with Tween-80
  T/C: 104 % of control
[5]
  T/C: 110 % of control
[6]
  T/C: 95 % of control
[7]
  T/C: 90 % of control

## CCOC(=O)C(=CN(C)c1ccc([N+](=O)[O-])cc1)C(=O)OCC
dose: 50.0 mg/kg/injection, schedule: Q01DX009 (ip), vehicle: other
  T/C: 100 % of control
dose: 100.0 mg/kg/injection, schedule: Q01DX009 (ip), vehicle: other
  T/C: 103 % of control
dose: 200.0 mg/kg/injection, schedule: Q01DX009 (ip), vehicle: other
  T/C: 109 % of control

## CN(C)c1ccc(C=Nc2ccc3c(c2)/C(=C/c2ccc(N(C)C)cc2)c2ccccc2-3)cc1
dose: 25.0 mg/kg/injection, schedule: Q04DX003 (ip), vehicle: saline with Tween-80
  T/C: 116 % of control
dose: 50.0 mg/kg/injection, schedule: Q04DX003 (ip), vehicle: saline with Tween-80
  T/C: 122 % of control
[1]
  T/C: 116 % of control
[2]
  T/C: 121 % of control

## C=C(C)C(=O)OC1CC2(C)OC2CC(OC(C)=O)/C(C)=C/C2OC(=O)C(=C)C21 (stereo not drawn)
dose: 11.25 mg/kg/injection, schedule: Q01DX009 (ip), vehicle: saline
  T/C: 118 % of control

## O=C1c2ccccc2C(=O)C1C(C[N+](=O)[O-])c1ccccc1 (stereo not drawn)
dose: 25.0 mg/kg/injection, schedule: Q01DX005 (ip), vehicle: saline with Tween-80
  T/C: 118 % of control
dose: 50.0 mg/kg/injection, schedule: Q01DX005 (ip), vehicle: saline with Tween-80
  T/C: 99 % of control

## Cc1cccc(=O)n1CCC#N
dose: 100.0 mg/kg/injection, schedule: Q04DX003 (ip), vehicle: saline
  T/C: 96 % of control
dose: 200.0 mg/kg/injection, schedule: Q04DX003 (ip), vehicle: saline
  T/C: 96 % of control
dose: 400.0 mg/kg/injection, schedule: Q04DX003 (ip), vehicle: saline
  T/C: 100 % of control

## COC1OC(COC(C)=O)C(OC(C)=O)C(OC(C)=O)[CH]1[Hg][O]C(C)=O (stereo not drawn)
dose: 3.13 mg/kg/injection, schedule: Q01DX009 (ip), vehicle: saline
  T/C: 95 % of control
[4]
  T/C: 114 % of control

## CC(Oc1cc(Cl)ccc1Cl)C(=O)O (stereo not drawn)
dose: 100.0 mg/kg/injection, schedule: Q01DX009 (ip), vehicle: Klucel (hydroxypropylcellulose) (HPC)
  T/C: 90 % of control
[5]
  T/C: 100 % of control
dose: 200.0 mg/kg/injection, schedule: Q01DX009 (ip), vehicle: Klucel (hydroxypropylcellulose) (HPC)
  T/C: 100 % of control
[6]
  T/C: 104 % of control
dose: 400.0 mg/kg/injection, schedule: Q01DX009 (ip), vehicle: Klucel (hydroxypropylcellulose) (HPC)
  T/C: 113 % of control
[7]
  T/C: 108 % of control
